This test deals with T1, human GlyT1c transporter (Homo sapiens, UniProt P48067).
T1 construct: expressed in transfected cells; host or cells: CHO cells (recombinant; line hGlyT1c_5_CHO is named for the uptake assay)
T1 sequence (P48067 1-706): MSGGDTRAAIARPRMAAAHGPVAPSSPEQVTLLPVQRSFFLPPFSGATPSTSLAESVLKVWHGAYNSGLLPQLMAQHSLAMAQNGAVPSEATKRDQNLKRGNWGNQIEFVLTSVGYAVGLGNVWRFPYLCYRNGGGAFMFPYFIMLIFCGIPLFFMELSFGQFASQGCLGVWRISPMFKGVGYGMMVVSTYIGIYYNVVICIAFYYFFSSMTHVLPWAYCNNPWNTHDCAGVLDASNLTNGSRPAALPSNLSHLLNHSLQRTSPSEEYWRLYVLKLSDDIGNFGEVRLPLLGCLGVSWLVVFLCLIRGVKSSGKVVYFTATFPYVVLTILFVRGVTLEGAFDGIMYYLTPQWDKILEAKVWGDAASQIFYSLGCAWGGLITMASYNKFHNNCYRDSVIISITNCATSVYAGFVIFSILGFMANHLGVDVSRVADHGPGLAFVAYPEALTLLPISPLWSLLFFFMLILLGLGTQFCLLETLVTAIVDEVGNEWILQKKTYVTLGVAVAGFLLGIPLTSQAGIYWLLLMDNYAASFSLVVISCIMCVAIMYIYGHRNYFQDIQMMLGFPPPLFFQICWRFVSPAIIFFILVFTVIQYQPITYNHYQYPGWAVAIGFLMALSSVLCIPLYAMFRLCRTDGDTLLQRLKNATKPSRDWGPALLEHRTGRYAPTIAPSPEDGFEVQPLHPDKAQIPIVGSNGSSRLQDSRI
Briefly: Radioligand binding assay using recombinant CHO cell membranes expressing human GlyT1. The text has this: 2. Radioligand binding assays using recombinant CHO cell membranes expressing human GlyT1: […]

[1] abbreviates: radioligand binding to human GlyT1c transporter-expressing membranes.

Structures are written as SMILES.

As to `O=S(=O)(N1CCCC1)N1CC(Nc2ccc(F)c(F)c2)C(c2ccccc2)C1` (stereo not drawn) [Example 485, N-(3,4-difluorophenyl)-4-phenyl-1-(pyrrolidin-1-ylsulfonyl)pyrrolidin-3-amine], the Ki (as a rule, the equilibrium dissociation constant of an inhibitor or competing ligand from its target) under setting [1] is not above 10000 nM. Still for that read-out and setting: as for `Cn1cnc(S(=O)(=O)N2C[C@@H](Nc3ccc(Cl)c(C(F)(F)F)c3)[C@H](c3ccccc3)C2)c1` (relative stereo) [Example 217, trans-N-[4-chloro-3-(trifluoromethyl)phenyl]-1-[(1-methyl-1H-imidazol-4-yl)sulfonyl]-4-phenylpyrrolidin-3-amine], the figure is not above 1000 nM; as for `CCOCCNC[C@@H]1CN(S(=O)(=O)c2cn(C)cn2)C[C@H]1c1ccc(F)cc1` (relative stereo) [Example 598, 2-ethoxy-N-({trans-4-(4-fluorophenyl)-1-[(1-methyl-1H-imidazol-4-yl)sulfonyl]pyrrolidin-3-yl}methyl)ethanamine], not above 10000 nM; as for `Cc1cccc(N[C@@H]2CN(S(=O)(=O)c3cn(C)cn3)C[C@H]2c2ccccc2)c1` (relative stereo) [Example 58, trans-1-[(1-methyl-1H-imidazol-4-yl)sulfonyl]-N-(3-methylphenyl)-4-phenylpyrrolidin-3-amine], not above 100 nM. Consider `Cn1cnc(S(=O)(=O)N2C[C@H](Nc3cccc(F)c3)[C@@H](c3ccc(F)cc3)C2)c1` [Example 353, (3R,4S)-N-(3-fluorophenyl)-4-(4-fluorophenyl)-1-[(1-methyl-1H-imidazol-4-yl)sulfonyl]pyrrolidin-3-amine], for which the inhibition constant Ki under setting [1] is not above 100 nM. Still for that read-out and setting: as for `Cn1cnc(S(=O)(=O)N2C[C@H](NCc3cc(Cl)sc3Cl)[C@@H](c3ccccc3)C2)c1` [Example 570, (3R,4S)-N-[(2,5-dichlorothiophen-3-yl)methyl]-1-[(1-methyl-1H-imidazol-4-yl)sulfonyl]-4-phenylpyrrolidin-3-amine], the figure is not above 10 nM. As to `Cn1ccc2cc(S(=O)(=O)N3CC(Nc4ccc(F)c(F)c4)C(c4ccccc4)C3)ccc21` (stereo not drawn) [Example 503, N-(3,4-difluorophenyl)-1-[(1-methyl-1H-indol-5-yl)sulfonyl]-4-phenylpyrrolidin-3-amine], the Ki under setting [1] was not below 10000 nM. The same measure, in the same setting: with `CC(C)c1csc(CN[C@H]2CN(S(=O)(=O)c3cn(C)cn3)C[C@@H]2c2ccccc2)n1` [Example 556, (3R,4S)-1-[(1-methyl-1H-imidazol-4-yl)sulfonyl]-4-phenyl-N-{[4-(propan-2-yl)-1,3-thiazol-2-yl]methyl}pyrrolidin-3-amine] the figure was not above 10000 nM; with `Cc1nn(C)cc1S(=O)(=O)N1C[C@@H](NC(=O)c2cccc(C(F)(F)F)c2Cl)[C@H](c2ccccc2)C1` (relative stereo) [Example 42, 2-chloro-N-{trans-1-[(1,3-dimethyl-1H-pyrazol-4-yl)sulfonyl]-4-phenylpyrrolidin-3-yl}-3-(trifluoromethyl)benzamide], not above 10000 nM; with `CC(C)c1cccc(N[C@@H]2CN(S(=O)(=O)c3cn(C)cn3)C[C@H]2c2ccccc2)c1` (relative stereo) [Example 220, trans-1-[(1-methyl-1H-imidazol-4-yl)sulfonyl]-4-phenyl-N-[3-(propan-2-yl)phenyl]pyrrolidin-3-amine], not above 10 nM. On the same count and under the same terms, with `Cn1cnc(S(=O)(=O)N2C[C@@H](NC(=O)c3cc(Cl)cc(Cl)c3)[C@H](c3ccccc3)C2)c1` (relative stereo) [Example 30, 3,5-dichloro-N-{trans-1-[(1-methyl-1H-imidazol-4-yl)sulfonyl]-4-phenylpyrrolidin-3-yl}benzamide] the figure was not above 10000 nM.

Regarding `Cn1cnc(S(=O)(=O)N2C[C@@H](C(=O)NCc3ccccc3)[C@H](c3ccc(F)cc3)C2)c1` (relative stereo) [Example 289, Trans-N-benzyl-4-(4-fluorophenyl)-1-[(1-methyl-1H-imidazol-4-yl)sulfonyl]pyrrolidine-3-carboxamide], the Ki under setting [1] is not above 1000 nM.

For `Cn1cnc(S(=O)(=O)N2C[C@H](NCC3CC3c3ccccc3)[C@@H](c3ccccc3)C2)c1` (stereo partly drawn) [Example 564, (3R,4S)-1-[(1-methyl-1H-imidazol-4-yl)sulfonyl]-4-phenyl-N-[(2-phenylcyclopropyl)methyl]pyrrolidin-3-amine], the Ki under setting [1] is not above 1000 nM. With `Cn1cnc(S(=O)(=O)N2C[C@@H](Nc3cccc(F)c3F)[C@H](c3ccc(F)cc3)C2)c1` (relative stereo) [Example 163, trans-N-(2,3-difluorophenyl)-4-(4-fluorophenyl)-1-[(1-methyl-1H-imidazol-4-yl)sulfonyl]pyrrolidin-3-amine], the inhibition constant Ki under setting [1] is not above 1000 nM. As to `Cn1cnc(S(=O)(=O)N2C[C@@H](C(=O)Nc3cccc(C#N)c3)[C@H](c3ccc(F)cc3)C2)c1` (relative stereo) [Example 347, Trans-N-(3-cyanophenyl)-4-(4-fluorophenyl)-1-[(1-methyl-1H-imidazol-4-yl)sulfonyl]pyrrolidine-3-carboxamide], the Ki under setting [1] was not above 10000 nM. `Cn1cnc(S(=O)(=O)N2C[C@@H](C(=O)Nc3ccc(F)c(Cl)c3)[C@H](c3ccc(F)cc3)C2)c1` (relative stereo) [Example 275, trans-N-(3-chloro-4-fluorophenyl)-4-(4-fluorophenyl)-1-[(1-methyl-1H-imidazol-4-yl)sulfonyl]pyrrolidine-3-carboxamide]: under setting [1], the Ki is not above 1000 nM. `Cn1cnc(S(=O)(=O)N2CC(Nc3cccc(OC(F)(F)F)c3)C(C3CCN(C4CC4)CC3)C2)c1` (stereo not drawn) [Example 678, -4-(1-cyclopropylpiperidin-4-yl)-1-[(1-methyl-1H-imidazol-4-yl)sulfonyl]-N-[3-(trifluoromethoxy)phenyl]pyrrolidin-3-amine]: under setting [1], the Ki is not above 1000 nM.

On to `CCCCCC(=O)N[C@H]1CN(S(=O)(=O)c2cn(C)cn2)C[C@@H]1c1ccccc1` [Example 550, N-{(3R,4S)-1-[(1-methyl-1H-imidazol-4-yl)sulfonyl]-4-phenylpyrrolidin-3-yl}hexanamide], for which, under setting [1], the Ki was not above 10000 nM.

On to `Cn1cnc(S(=O)(=O)N2C[C@@H](NCc3cccc(Cl)c3)[C@H](c3ccc(F)cc3)C2)c1` (relative stereo) [Example 261, trans-N-(3-chlorobenzyl)-4-(4-fluorophenyl)-1-[(1-methyl-1H-imidazol-4-yl)sulfonyl]pyrrolidin-3-amine], for which, under setting [1], the Ki was not above 1000 nM.

With `Cn1cnc(S(=O)(=O)N2C[C@@H](Nc3cccc(Cl)c3)[C@H](OCc3ccccc3)C2)c1` (relative stereo) [Example 400, Trans-4-(benzyloxy)-N-(3-chlorophenyl)-1-[(1-methyl-1H-imidazol-4-yl)sulfonyl]pyrrolidin-3-amine], the Ki under setting [1] was not above 10000 nM. On the same count and under the same terms, as for `CC(C)CCN[C@H]1CN(S(=O)(=O)c2cn(C)cn2)C[C@@H]1c1ccccc1` [Example 463, (3R,4S)-N-(3-methylbutyl)-1-[(1-methyl-1H-imidazol-4-yl)sulfonyl]-4-phenylpyrrolidin-3-amine], the figure is not above 1000 nM; as for `Cn1cnc(S(=O)(=O)N2C[C@@H](Nc3cc(C(F)(F)F)ncn3)[C@H](C3CCCCC3)C2)c1` (relative stereo) [Example 531, N-{trans-4-cyclohexyl-1-[(1-methyl-1H-imidazol-4-yl)sulfonyl]pyrrolidin-3-yl}-6-(trifluoromethyl)pyrimidin-4-amine], not above 100 nM. The same measure, in the same setting: as for `Cc1ccc(S(=O)(=O)N2CC(Nc3ccc(F)c(F)c3)C(c3ccccc3)C2)s1` (stereo not drawn) [Example 518, N-(3,4-difluorophenyl)-1-[(5-methylthiophen-2-yl)sulfonyl]-4-phenylpyrrolidin-3-amine], the figure is more than 10000 nM; as for `Cn1cnc(S(=O)(=O)N2C[C@@H](OCc3cccc(S(C)(=O)=O)c3)[C@H](c3ccc(F)cc3)C2)c1` (relative stereo) [Example 714, 4-{[trans-3-(4-fluorophenyl)-4-{[3-(methylsulfonyl)benzyl]oxy}pyrrolidin-1-yl]sulfonyl}-1-methyl-1H-imidazole], not above 10000 nM. For `Cc1cc(N[C@@H]2CN(S(=O)(=O)c3cn(C)cn3)C[C@H]2C2CCCCO2)ncc1F` (relative stereo) [Example 852, 5-Fluoro-4-methyl-N-[trans-1-[(1-methyl-1H-imidazol-4-yl)sulfonyl]-4-(tetrahydro-2H-pyran-2-yl)pyrrolidin-3-yl]pyridin-2-amine], for the setting “radioligand binding, recombinant CHO cell membranes expressing human GlyT1c”, the Ki was not above 1000 nM. On to `Cn1cnc(S(=O)(=O)N2C[C@H](NCc3ccc(Cl)s3)[C@@H](c3ccc(F)cc3)C2)c1` [Example 393, (3R,4S)-N-[(5-chlorothiophen-2-yl)methyl]-4-(4-fluorophenyl)-1-[(1-methyl-1H-imidazol-4-yl)sulfonyl]pyrrolidin-3-amine], for which, under setting [1], the inhibitory constant (Ki) is not above 10 nM.

`Cn1cnc(S(=O)(=O)N2C[C@H](NCC(C)(C)C)[C@@H](c3ccccc3)C2)c1` [Example 436, (3R,4S)-N-(2,2-dimethylpropyl)-1-[(1-methyl-1H-imidazol-4-yl)sulfonyl]-4-phenylpyrrolidin-3-amine]: under setting [1], the inhibitory constant (Ki) is not above 1000 nM.

Values taken from patent EP2970215B1, “PYRROLIDINE DERIVATIVES, PHARMACEUTICAL COMPOSITIONS CONTAINING THEM, AND THEIR USE IN THERAPY” (AbbVie Deutschland GmbH & Co. KG, priority 2013, dated 2014).
